Laboratory results from patent US9771379B2, “N-(2-(2-amino-6-substituted-4,4a,5,6-tetrahydropyrano[3,4-d][1,3]OXAZIN-8a(8H)-yl)-thiazol-4-yl) amides” (Pfizer Inc., priority 2015, dated 2017).

molecular target: BACE1 enzyme (Homo sapiens (Human), UniProt P56817); assay: BACE1 Cell-Free Assay; format: biochemical; conditions: fluorescence polarization, synthetic APP substrate, pH 4.5
From the text: This assay measures the inhibition of the beta-secretase enzyme as it cleaves a non-native peptide.
A synthetic APP substrate that can be cleaved by beta-secretase having N-terminal biotin and made fluorescent by the covalent attachment of Oregon Green at the Cys residue is used to assay beta-secretase activity in the presence or absence of the inhibitory compounds. […] The BACE1 enzyme is affinity purified material from conditioned media of CHO-K1 cells that have been transfected with a soluble BACE construct (BACE1delta™96His). […] Plates are covered and incubated for 3 hours at 37° C. […] The activity of the beta-secretase enzyme is detected by changes in the fluorescence polarization that occur when the substrate is cleaved by the enzyme.

Chain of BACE1 enzyme (P56817 46-457): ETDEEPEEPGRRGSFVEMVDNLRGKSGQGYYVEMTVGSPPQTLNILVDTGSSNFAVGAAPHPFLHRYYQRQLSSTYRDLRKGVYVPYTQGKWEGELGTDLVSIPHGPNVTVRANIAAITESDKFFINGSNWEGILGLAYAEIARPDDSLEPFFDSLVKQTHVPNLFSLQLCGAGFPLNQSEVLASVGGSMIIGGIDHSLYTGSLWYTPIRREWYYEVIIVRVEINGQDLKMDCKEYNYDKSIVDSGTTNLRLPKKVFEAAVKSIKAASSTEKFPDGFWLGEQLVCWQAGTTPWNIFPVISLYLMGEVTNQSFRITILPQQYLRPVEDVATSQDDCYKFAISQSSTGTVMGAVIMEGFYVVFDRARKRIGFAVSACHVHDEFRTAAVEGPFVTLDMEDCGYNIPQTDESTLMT

Row | Compound | IC50 [nM]
1 | C[C@H]1C[C@H]2COC(N)=N[C@@]2(c2nc(NC(=O)c3ccc(OC(F)F)cn3)cs2)CO1 [Example 1, N-(2-((4aR,6S,8aR)-2-amino-6-methyl-4,4a,5,6-tetrahydropyrano[3,4-d][1,3]oxazin-8a(8H)-yl)thiazol-4-yl)-5-(difluoromethoxy)picolinamide] | 214
2 | C[C@H]1C[C@H]2COC(N)=N[C@@]2(c2nc(NC(=O)c3ncc(OC(F)F)cc3Cl)cs2)CO1 [Example 2, N-(2-((4aR,6S,8aR)-2-amino-6-methyl-4,4a,5,6-tetrahydropyrano[3,4-d][1,3]oxazin-8a(8H)-yl)thiazol-4-yl)-3-chloro-5-(difluoromethoxy)picolinamide] | 123
3 | Cc1cc(OC(F)F)cnc1C(=O)Nc1csc([C@]23CO[C@@H](C)C[C@H]2CCOC(N)=N3)n1 [Example 5, N-(2-((5aR,7S,9aR)-2-amino-7-methyl-5,5a,6,7-tetrahydro-4H-pyrano[3,4-d][1,3]oxazepin-9a(9H)-yl)thiazol-4-yl)-5-(difluoromethoxy)-3-methylpicolinamide] | 71
4 | C[C@H]1C[C@H]2[C@@H](CF)OC(N)=N[C@@]2(c2nc(NC(=O)c3ccc(OC(F)F)cn3)cs2)CO1 [Example 6, N-(2-((4S,4aR,6S,8aR)-2-amino-4-(fluoromethyl)-6-methyl-4,4a,5,6-tetrahydropyrano[3,4-d][1,3]oxazin-8a(8H)-yl)thiazol-4-yl)-5-(difluoromethoxy)picolinamide] | 270
5 | C[C@H]1C[C@H]2[C@@H](C(F)(F)F)OC(N)=N[C@@]2(c2nc(NC(=O)c3ccc(OC(F)F)cn3)cs2)CO1 [Example 7, N-(2-((4S,4aR,6S,8aR)-2-amino-6-methyl-4-(trifluoromethyl)-4,4a,5,6-tetrahydropyrano[3,4-d][1,3]oxazin-8a(8H)-yl)thiazol-4-yl)-5-(difluoromethoxy)picolinamide] | 112
6 | CC1(C)C[C@H]2COC(N)=N[C@@]2(c2nc(NC(=O)c3ccc(OC(F)F)cn3)cs2)CO1 [Example 8, N-(2-((4aR,8aR)-2-Amino-6,6-dimethyl-4,4a,5,6-tetrahydropyrano[3,4-d][1,3]oxazin-8a(8H)-yl)thiazol-4-yl)-5-(difluoromethoxy)picolinamide] | 610
7 | NC1=N[C@@]2(c3nc(NC(=O)c4ccc(Cl)cn4)cs3)CO[C@@H](C(F)(F)F)C[C@H]2CO1 [Example 10a, N-(2-((4aR,6R,8aR)-2-amino-6-(trifluoromethyl)-4,4a,5,6-tetrahydropyrano[3,4-d][1,3]oxazin-8a(8H)-yl)thiazol-4-yl)-5-chloropicolinamide] | 310
8 | NC1=N[C@]2(c3nc(NC(=O)c4ccc(Cl)cn4)cs3)CO[C@H](C(F)(F)F)C[C@@H]2CO1 [Example 10b, N-(2-((4aS,6S,8aS)-2-amino-6-(trifluoromethyl)-4,4a,5,6-tetrahydropyrano[3,4-d][1,3]oxazin-8a(8H)-yl)thiazol-4-yl)-5-chloropicolinamide] | 16700
9 | NC1=N[C@@]2(c3nc(NC(=O)c4ccc(OC(F)F)cn4)cs3)CO[C@@H](C(F)(F)F)C[C@H]2CO1 [Example 12a, N-(2-((4aR,6R,8aR)-2-amino-6-(trifluoromethyl)-4,4a,5,6-tetrahydropyrano[3,4-d][1,3]oxazin-8a(8H)-yl)thiazol-4-yl)-5-(difluoromethoxy)picolinamide] | 371
10 | NC1=N[C@]2(c3nc(NC(=O)c4ccc(OC(F)F)cn4)cs3)CO[C@H](C(F)(F)F)C[C@@H]2CO1 [Example 12b, N-(2-((4aS,6S,8aS)-2-amino-6-(trifluoromethyl)-4,4a,5,6-tetrahydropyrano[3,4-d][1,3]oxazin-8a(8H)-yl)thiazol-4-yl)-5-(difluoromethoxy)picolinamide] | 15000
11 | NC1=N[C@]2(c3nc(NC(=O)c4ncc(OC(F)F)cc4Cl)cs3)CO[C@H](C(F)(F)F)C[C@@H]2CO1 [Example 13b, N-(2-((4aS,6S,8aS)-2-amino-6-(trifluoromethyl)-4,4a,5,6-tetrahydropyrano[3,4-d][1,3]oxazin-8a(8H)-yl)thiazol-4-yl)-3-chloro-5-(difluoromethoxy)picolinamide] | 6970
12 | N#Cc1ccc(C(=O)Nc2csc([C@]34COC5(CCC5)C[C@H]3COC(N)=N4)n2)nc1 [Example 16, N-(2-((4a′R,8a′R)-2′-amino-4a′,5′-dihydro-4′H-spiro [cyclobutane-1,6′-pyrano [3,4-d][1,3]oxazin]-8a′(8′H)-yl)thiazol-4-yl)-5-cyano picolinamide] | 395
13 | NC1=N[C@@]2(c3nc(NC(=O)c4cnc(OC(F)F)cn4)cs3)COC3(CCC3)C[C@H]2CO1 [Example 17, N-(2-((4a′R,8a′R)-2′-amino-4a′,5′-dihydro-4′H-spiro [cyclobutane-1,6′-pyrano [3,4-d][1,3]oxazin]-8a′(8′H)-yl)thiazol-4-yl)-5-(difluoromethoxy)pyrazine-2-carboxamide] | 2260
14 | Cc1cc(C#N)cnc1C(=O)Nc1csc([C@]23COC4(CCC4)C[C@H]2COC(N)=N3)n1 [Example 19, N-(2-((4a′R,8a′R)-2′-amino-4a′,5′-dihydro-4′H-spiro [cyclobutane-1,6′-pyrano [3,4-d][1,3]oxazin]-8a′(8′H)-yl)thiazol-4-yl)-5-cyano-3-methylpicolinamide] | 185

More lines, now with the values ahead:

Row | IC50 [nM] | Compound
15 | 85 | Cc1cc(OC(F)F)cnc1C(=O)Nc1csc([C@]23CO[C@@H](C)C[C@H]2COC(N)=N3)n1 [Example 3, N-(2-((4aR,6S,8aR)-2-amino-6-methyl-4,4a,5,6-tetrahydropyrano[3,4-d][1,3]oxazin-8a(8H)-yl)thiazol-4-yl)-5-(difluoromethoxy)-3-methylpicolinamide]
16 | 146 | C[C@H]1C[C@H]2CCOC(N)=N[C@@]2(c2nc(NC(=O)c3ccc(OC(F)F)cn3)cs2)CO1 [Example 4, N-(2-((5aR,7S,9aR)-2-amino-7-methyl-5,5a,6,7-tetrahydro-4H-pyrano[3,4-d][1,3]oxazepin-9a(9H)-yl)thiazol-4-yl)-5-(difluoromethoxy)picolinamide]
17 | 475 | Cc1cc(OC(F)F)cnc1C(=O)Nc1csc([C@]23COC(C)(C)C[C@H]2COC(N)=N3)n1 [Example 9, N-(2-((4aR,8aR)-2-amino-6,6-dimethyl-4,4a,5,6-tetrahydropyrano[3,4-d][1,3]oxazin-8a(8H)-yl)thiazol-4-yl)-5-(difluoromethoxy)-3-methylpicolinamide]
18 | 155 | Cc1cc(OC(F)F)cnc1C(=O)Nc1csc([C@]23CO[C@@H](C(F)(F)F)C[C@H]2COC(N)=N3)n1 [Example 11a, N-(2-((4aR,6R,8aR)-2-amino-6-(trifluoromethyl)-4,4a,5,6-tetrahydropyrano[3,4-d][1,3]oxazin-8a(8H)-yl)thiazol-4-yl)-5-(difluoromethoxy)-3-methylpicolinamide]
19 | 10800 | Cc1cc(OC(F)F)cnc1C(=O)Nc1csc([C@@]23CO[C@H](C(F)(F)F)C[C@@H]2COC(N)=N3)n1 [Example 11b, N-(2-((4aS,6S,8aS)-2-amino-6-(trifluoromethyl)-4,4a,5,6-tetrahydropyrano[3,4-d][1,3]oxazin-8a(8H)-yl)thiazol-4-yl)-5-(difluoromethoxy)-3-methylpicolinamide]
20 | 184 | NC1=N[C@@]2(c3nc(NC(=O)c4ncc(OC(F)F)cc4Cl)cs3)CO[C@@H](C(F)(F)F)C[C@H]2CO1 [Example 13a, N-(2-((4aR,6R,8aR)-2-amino-6-(trifluoromethyl)-4,4a,5,6-tetrahydropyrano[3,4-d][1,3]oxazin-8a(8H)-yl)thiazol-4-yl)-3-chloro-5-(difluoromethoxy)picolinamide]
21 | 370 | Cc1cc(OC(F)F)cnc1C(=O)Nc1csc([C@]23COC4(CCC4)C[C@H]2COC(N)=N3)n1 [Example 15, N-(2-((4a′R,8a′R)-2′-amino-4a′,5′-dihydro-4′H-spiro[cyclobutane-1,6′-pyrano[3,4-d][1,3]oxazin]-8a′(8′H)-yl)thiazol-4-yl)-5-(difluoromethoxy)-3-methyl picolinamide]
22 | 561 | NC1=N[C@@]2(c3nc(NC(=O)c4ncc(OC(F)F)cc4Cl)cs3)COC3(CCC3)C[C@H]2CO1 [Example 18, N-(2-((4a′R,8a′R)-2′-amino-4a′,5′-dihydro-4′H-spiro [cyclobutane-1,6′-pyrano[3,4-d][1,3]oxazin]-8a′(8′H)-yl)thiazol-4-yl)-3-chloro-5-(difluoromethoxy) picolinamide]

same assay, conditions: stated in words; used to assign absolute stereochemistry

Row | biological activity | Compound
23 | active | NC1=N[C@@]2(c3nc(NC(=O)c4ccc(Cl)cn4)cs3)CO[C@@H](C(F)(F)F)C[C@H]2CO1 [Example 10a, N-(2-((4aR,6R,8aR)-2-amino-6-(trifluoromethyl)-4,4a,5,6-tetrahydropyrano[3,4-d][1,3]oxazin-8a(8H)-yl)thiazol-4-yl)-5-chloropicolinamide]
24 | inactive | NC1=N[C@]2(c3nc(NC(=O)c4ccc(Cl)cn4)cs3)CO[C@H](C(F)(F)F)C[C@@H]2CO1 [Example 10b, N-(2-((4aS,6S,8aS)-2-amino-6-(trifluoromethyl)-4,4a,5,6-tetrahydropyrano[3,4-d][1,3]oxazin-8a(8H)-yl)thiazol-4-yl)-5-chloropicolinamide]
25 | active | NC1=N[C@@]2(c3nc(NC(=O)c4ncc(OC(F)F)cc4Cl)cs3)CO[C@@H](C(F)(F)F)C[C@H]2CO1 [Example 13a, N-(2-((4aR,6R,8aR)-2-amino-6-(trifluoromethyl)-4,4a,5,6-tetrahydropyrano[3,4-d][1,3]oxazin-8a(8H)-yl)thiazol-4-yl)-3-chloro-5-(difluoromethoxy)picolinamide]
26 | inactive | NC1=N[C@]2(c3nc(NC(=O)c4ncc(OC(F)F)cc4Cl)cs3)CO[C@H](C(F)(F)F)C[C@@H]2CO1 [Example 13b, N-(2-((4aS,6S,8aS)-2-amino-6-(trifluoromethyl)-4,4a,5,6-tetrahydropyrano[3,4-d][1,3]oxazin-8a(8H)-yl)thiazol-4-yl)-3-chloro-5-(difluoromethoxy)picolinamide]

molecular target: full length human BACE1 (Homo sapiens (Human), UniProt P56817); assay: BACE1 Scintillation Proximity Binding Assay (SPA); conditions: radioligand displacement, HEK cell membranes, pH 6.0
Sequence (P56817 46-501): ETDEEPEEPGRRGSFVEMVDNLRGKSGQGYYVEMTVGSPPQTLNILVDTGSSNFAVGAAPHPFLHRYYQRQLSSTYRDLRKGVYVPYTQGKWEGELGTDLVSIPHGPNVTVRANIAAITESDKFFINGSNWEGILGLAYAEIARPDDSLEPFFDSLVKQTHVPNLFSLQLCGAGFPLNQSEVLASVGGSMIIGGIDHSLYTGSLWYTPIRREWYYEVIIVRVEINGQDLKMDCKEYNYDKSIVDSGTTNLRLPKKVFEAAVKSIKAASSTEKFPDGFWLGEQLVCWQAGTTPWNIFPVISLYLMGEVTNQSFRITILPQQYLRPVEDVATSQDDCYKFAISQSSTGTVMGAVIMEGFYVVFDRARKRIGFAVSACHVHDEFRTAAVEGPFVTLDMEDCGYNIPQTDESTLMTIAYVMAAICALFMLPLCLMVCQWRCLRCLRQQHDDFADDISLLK
Procedure: BACE1 Scintillation Proximity Binding Assay (SPA): The BACE1 binding assay measured beta-site amyloid precursor protein-cleaving enzyme (BACE) binding as a decrease in the counts of radioligand bound in a scintillation proximity assay (SPA). […] Full length human BACE1 over-expressed in HEK cells was prepared by Pfizer scientists. Frozen stock cell paste was reacted in 50 mM sodium acetate buffer (pH=6.0) containing 3H-(4aR,6R,8aS)-8a-(2,4-difluorophenyl)-6-(1-methyl-1H-pyrazol-4-yl)-4,4a,5,6,8,8a-hexahydropyrano[3,4-d][1,3]thiazin-2-amine ligand, SPA bead and 60 μM to 600 pM of test compound in an assay volume of 27 uL. The compound plate also contained positive (BACE inhibitor) and negative (DMSO) control wells. The binding was carried out at room temperature for 30 minutes and then the plates were read on a TriLux Microbeta reader to determine the number of counts bound. The raw data was converted to percent effect compared to positive and negative control wells and the compound concentrations and % effect values for tested compounds were plotted to determine the 50% effect (1050) with a four-parameter logistic dose response equation.

Row | IC50 [nM] | Compound
27 | 124 | NC1=N[C@@]2(c3nc(NC(=O)c4cnc(OC(F)F)cn4)cs3)CO[C@@H](C(F)(F)F)C[C@H]2CO1 [Example 20, N-{2-[(4aR,6R,8aR)-2-amino-6-(trifluoromethyl)-4,4a,5,6-tetrahydropyrano [3,4-d][1,3]oxazin-8a(8H)-yl]-1,3-thiazol-4-yl}-5-(difluoromethoxy)pyrazine-2-carboxamide]
